Values joined by “and” are separate entries in the source; they are usually repeats but may differ in a detail not shown here. Identical values can stand only once.
How the values were obtained:
[1] = biological target: T1, androgen receptor (Homo sapiens, UniProt P10275); experiment: AR binding (Ki, Table A)
T1 sequence (P10275 1-920): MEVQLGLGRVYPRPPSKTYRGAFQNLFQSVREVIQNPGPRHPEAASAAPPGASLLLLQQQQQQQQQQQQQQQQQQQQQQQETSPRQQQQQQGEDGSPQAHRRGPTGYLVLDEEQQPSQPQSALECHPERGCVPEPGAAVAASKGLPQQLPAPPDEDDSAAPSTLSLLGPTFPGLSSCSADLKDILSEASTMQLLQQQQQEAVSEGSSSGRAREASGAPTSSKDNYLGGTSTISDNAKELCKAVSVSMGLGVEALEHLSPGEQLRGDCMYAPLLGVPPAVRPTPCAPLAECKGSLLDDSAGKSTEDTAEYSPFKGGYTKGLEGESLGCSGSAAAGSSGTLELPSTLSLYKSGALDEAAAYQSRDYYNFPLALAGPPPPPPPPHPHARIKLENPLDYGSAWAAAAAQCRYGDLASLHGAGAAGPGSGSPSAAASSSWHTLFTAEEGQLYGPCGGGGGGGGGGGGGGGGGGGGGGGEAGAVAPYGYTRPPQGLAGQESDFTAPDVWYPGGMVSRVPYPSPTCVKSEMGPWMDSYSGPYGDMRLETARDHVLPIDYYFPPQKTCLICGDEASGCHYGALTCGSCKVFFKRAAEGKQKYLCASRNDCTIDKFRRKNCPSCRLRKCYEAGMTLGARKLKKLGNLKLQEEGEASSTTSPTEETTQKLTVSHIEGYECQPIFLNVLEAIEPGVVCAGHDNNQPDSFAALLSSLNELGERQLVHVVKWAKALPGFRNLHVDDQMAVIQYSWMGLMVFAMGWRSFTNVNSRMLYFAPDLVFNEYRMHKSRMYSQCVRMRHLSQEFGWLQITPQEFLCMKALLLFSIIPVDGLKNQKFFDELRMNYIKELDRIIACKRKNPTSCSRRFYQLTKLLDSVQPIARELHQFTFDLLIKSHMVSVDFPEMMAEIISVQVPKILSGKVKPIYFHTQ
Source text: (§1) The activity of a compound can be determined using various known methods. For example, AR assays can be used. Such AR assays include binding assays using, for example, cells transfected with the human androgen receptor. Several cell based model systems that allow sensitive detection and monitoring of steroids or other compounds with AR bioactivity are known. Most cell based AR reporter models use transgenic gene constructs that include an androgen response element (ARE) that controls reporter gene (e.g., lucifersrase) expression. For example, a human AR Reporter Assay System is commercially available from Indigo Biosciecnes. The principle application of such an assay product is to quantify functional activities, either agonist or antagonist, that a compound may exert against the human androgen receptor. […] In addition, the anti-proliferative activity of a compound can be determined using various known methods, including in vitro and in vivo antiproliferative assays using cancer cell lines such as a prostate cancer cell line.

[2] = biological target: T1, androgen receptor; experiment: human AR agonist assay (Indigo Biosciences); format: cell-based; parameters: purchased Indigo Biosciences; conditions: for HillSlope: agonist mode, Table 1 / FIG. 1
Source text: as §1
(§2) The activity of certain compounds were tested in a human AR agonist assay and a human AR antagonist assay (Indigo Biosciences).

[3] = biological target: T1, androgen receptor; experiment: human AR antagonist assay (Indigo Biosciences); format: cell-based; parameters: purchased Indigo Biosciences
Source text: as §1, §2

[4] = antagonist mode, Table 2 / FIG. 2
[5] = antagonist mode, Table 3 / FIG. 3

Row | SMILES | Ki [1] | HillSlope [2] | IC50 ([3]; Table A) | HillSlope [3, 4] | IC50 [3, 4] | also measured
1 | CC(=O)O[C@@H]1CC2=C3CCC4=CC(=O)CC[C@@H]4[C@@]3(C)CC[C@]2(C)C1 [Compound 101, (9R,10S,13R,16S)-9,13-dimethyl-3-oxo-2,3,6,7,9,10,11,12,13,15,16,17-dodecahydro-1H-cyclopenta[a]phenanthren-16-yl acetate] | 7350 nM | 1.063 | 413 nM | 2.100 | 413 nM | EC50 [2]: 10000 nM
2 | C[C@]12CC[C@@]3(C)C(=C1C[C@@H](O)C2)CCC1=CC(=O)CC[C@@H]13 [Compound 102, (9R,10S,13R,16S)-16-hydroxy-9,13-dimethyl-1,2,6,7,9,10,11,12,13,15,16,17-dodecahydro-3H-cyclopenta[a]phenanthren-3-one] | 919 nM | 1.300 | 654 nM | 1.728 | 654 nM | EC50 [2]: 23000 nM
3 | C[C@]12CC[C@@]3(C)C(=C1C[C@H](O)C2)CCC1=CC(=O)CC[C@@H]13 [Compound 103, (9R,10S,13R,16R)-16-hydroxy-9,13-dimethyl-1,2,6,7,9,10,11,12,13,15,16,17-dodecahydro-3H-cyclopenta[a]phenanthren-3-one] | 3460 nM | ≈1.247 | 1240 nM | 1.906 | 1240 nM | –
4 | C[C@@]12CC[C@]3(C)C(=C1C[C@H](O)C2)CCC1=CC(=O)CC[C@H]13 [Compound 104] | – | – | 4300 nM | – | – | –
5 | C[C@@]12CC[C@]3(C)C(=C1C[C@@H](O)C2)CCC1=CC(=O)CC[C@H]13 [Compound 105] | – | – | 1500 nM | – | – | –
6 | C[C@]12CC[C@@]3(C)C(=C1C[C@@H](O)C2)CCC1=C[C@@H](O)CC[C@@H]13 [Compound 107] | – | – | 4800 nM | – | – | –
7 | CC(C)CCC[C@]12CC[C@@]3(C)C(=C1C[C@@H](O)C2)CCC1=CC(=O)CC[C@@H]13 [Compound 108] | – | – | – | – | – | HillSlope [3, 5]: 1.225
8 | CC(C)CCC[C@]12CC[C@@]3(C)C(=C1C[C@@H](O)C2)CCC1=CC(=O)CC[C@@H]13 [Compound 110] | – | – | – | – | – | HillSlope [3, 5]: 0.6338
9 | CC(C)(O)C(=O)Nc1ccc([N+](=O)[O-])c(C(F)(F)F)c1 [hydroxyflutamide, reference compound] | – | – | – | – | – | HillSlope [3]: 1.305 and 1.653
